# Measurements from article doi:10.1101/2025.01.17.633618, “Systematic Determination of the Impact of Structural Edits on Peptide Accumulation into Mycobacteria” (bioRxiv, 2025).
# Where two headings read alike, the source gives them in different places. Bridge positions count the residues as written; N and C are the ends. Square brackets hold non-standard residues; d marks the D form. Peptide text beside a SMILES is read from it. * marks the point of attachment. Lys(N3) = [N-]=[N+]=NCCCC[C@H](N)C(=O)O; Azidoacetyl = [N-]=[N+]=NCC(=O)*; NMeF = CN[C@@H](Cc1ccccc1)C(=O)O; NMeL = CN[C@@H](CC(C)C)C(=O)O
# Legend:
# [1] = system: Mycobacterium smegmatis strain mc2155 (Msm)
# Serum stability assay = format: in vitro ADME; details: mouse serum, 37 °C, 1.0 mM peptide; time points 0, 15, 30, 60 min; RP-HPLC (C8), AUC normalized to internal standard Fmoc-L-phenylalanine
# Experimental: was added to the system. The systems were prepared using the CHARMM scripts provided by CHARMM-GUI.4 The CHARMM36m force field5 was employed for the MD simulations. After energy minimization and 500 ps equilibration, a 100 ns production run was performed. All production MD simulations were performed for the NPT ensemble at 303.15 K and 1 atm using NAMD3. Long-range electrostatic interactions were treated using the particle mesh Ewald (PME) method 6 while Lennard-Jones (LJ) interactions were managed with a force-based switching function applied between 10 Å and 12 Å. […] Hydrogen bonds between different residues within the same peptide were analyzed using the last 50 ns of the simulation.
# Serum stability assay. Time course degradation in mouse serum was evaluated for peptides Lin0, Cyc0, Nmet0 and Nmet9. […]
# The samples were then centrifuged at 21,000×g for 5 min. […] 110 μL of the filtrate was then analyzed using Phenomenex Luna 5 µm C8(2) on RP-HPLC; gradient elution in H2O/CH3CN with 0.1% TFA at 1 mL/min. […]
# Minimum inhibitory concentration (MIC) assay. […] MIC values were determined both visually and readings of OD (wells OD < 0.1) from a Biotek Synergy H1 microplate reader at 600 nm.
smiles,measurement,setting,value
CC(C)C[C@H](NC(=O)[C@H](CCCCN)NC(=O)CN=[N+]=[N-])C(=O)N[C@@H](CCCCN)C(=O)N(C)[C@@H](CC(C)C)C(=O)N(C)[C@@H](Cc1ccccc1)C(N)=O [Nmet2] (Azidoacetyl-KLK[NMeL][NMeF]-NH2),apparent accumulation across the mycomembrane in Msm,[1],increase was even more pronounced
CC(C)C[C@@H]1NC(=O)[C@H](CCCCN=[N+]=[N-])NC(=O)CSC[C@@H](C(=O)N[C@@H](Cc2ccccc2)C(N)=O)NC(=O)[C@H](CCCCN)NC(=O)[C@H](CO)NC1=O [Cyc0] ({CH2CO}-[Lys(N3)]LSKCF-NH2; thioether N-5),apparent accumulation across the mycomembrane in Msm,"[1]; PAC-MAN, 50 μM compound, 2 h, 37 °C, chase 50 μM Fl-az 1 h, flow cytometry, mean ± SD n = 3",better accumulation than any other member of this macrocyclic sub-library
CC(=O)N[C@@H](CCCCN=[N+]=[N-])C(=O)N[C@@H](CC(C)C)C(=O)N[C@@H](CO)C(=O)N[C@@H](CCCCN)C(=O)N[C@@H](CO)C(=O)N[C@@H](Cc1ccccc1)C(N)=O [Lin0] (Ac-[Lys(N3)]LSKSF-NH2),time to full degradation in serum,Serum stability assay,≤ 1 h
